# Tested on: HEK293 GFP-correction line
# Assay: Targeted gene modification by HDR/HITI in HEK293 GFP-correction line
# Assay type: cell-based
# Conditions: NU7026 30 μM
# Text: Generation of HEK293 GFP-correction line. To assess the efficiency of targeted gene modification by HDR and HITI in dividing cells, a mutated GFP gene-based reporter system was established in HEK293. Briefly, pEGIP*35 was co-transfected with pMDLg/pRRE, pRSV-Rev and pMD2.G, packaged and purified as lentiviral vectors according to a published protocol Kutner, R. H., Zhang, X.-Y. & Reiser, J. Production, concentration and titration of pseudotyped HIV-1-based lentiviral vectors. Nature Protocols 4, 495-505 (2009). HEK293 cells were transduced in suspension with lentiviral EGIP*35 vector and 4 μg/ml polybrene for 1 h. After brief centrifugation to remove any residual lentiviral vector, the cells were seeded in 100 mm dishes. Three days after transduction, puromycin (1-2 μg/ml; Invitrogen) was added to the medium. After 10 days, single colonies were individually picked up and expanded as HEK293 GFP-correction line.
# Transfection of in vitro cultured cells. […]
# Existing methods were improved for more robust NHEJ-based targeted knock-in. […] The efficiencies of targeted gene replacement via HDR and homology-independent targeted integration (HITI) were determined by GFP and mCherry signals respectively (FIG. 1A). […]
compound,measurement,value
O=c1cc(N2CCOCC2)oc2c1ccc1ccccc12 [NU7026],effect of NHEJ inhibitor on efficiency of HITI,significantly decreased
